IC50 data for six molecules are collected here from patent publication US8404695B2, “Pyrimidinyl pyridone inhibitors of JNK” (Roche Palo Alto LLC, priority 2008, dated 2013).

The target in one test is Human JNK1α1 (Homo sapiens, UniProt P45983). Briefly: JNK assay in vitro, phosphorylation of GST-ATF2 (19-96) with [γ-33P] ATP, JNK1. Type of test: biochemical. As to conditions: 2 nM enzyme, 1 μM ATF2, 6 μM ATP, 30° C. for 30 min. How it is done:
(§1) JNK activity was measured by phosphorylation of GST-ATF2 (19-96) with [γ-^33P] ATP. The enzyme reaction was conducted at Km concentrations of ATP and the substrate at final volume of 40 μl in buffer containing 25 mM HEPES, pH 7.5, 2 mM dithiothreitol, 150 mM NaCl, 20 mM MgCl2, 0.001% Tween® 20, 0.1% BSA and 10% DMSO. Human JNK2α2 assay contains 1 nM enzyme, 1 μM ATF2, 8 μM ATP with 1 uCi [γ-^33P] ATP. Human JNK1α1 assay contains 2 nM enzyme, 1 μM ATF2, 6 μM ATP with 1 μCi [γ-^33P] ATP. Human JNK3 (Upstate Biotech #14-501M) assay contains 2 nM enzyme, 1 μM ATF2, 4 μM ATP with 1 μCi [γ-^33P] ATP. The enzyme assay was carried out in the presence or absence of several compound concentrations. JNK and compound were pre-incubated for 10 min., followed by initiation of the enzymatic reaction by adding ATP and the substrate. The reaction mixture was incubated at 30° C. for 30 min. At the end of incubation, the reaction was terminated by transferring 25 μl of the reaction mixture to 150 μl of 10% glutathione Sepharose® slurry (Amersham # 27-4574-01) containing 135 mM EDTA. The reaction product was captured on the affinity resin, and washed on a filtration plate (Millipore, MABVNOB50) with phosphate buffered saline for six times to remove free radionucleotide. The incorporation of ^33P into ATF2 was quantified on a microplate scintillation counter (Packard Topcount). Compound inhibition potency on JNK was measured by IC50 value generated from ten concentration inhibition curves fitted into the 3-parameter model: % inhibition=Maximum/(1+(IC50/[Inhibitor])^slope). Data were analyzed on Microsoft Excel for parameter estimation.

The next test addresses Human JNK2α2 (Homo sapiens, UniProt P45984). As to the kind of experiment: JNK assay in vitro, phosphorylation of GST-ATF2 (19-96) with [γ-33P] ATP, JNK2. Type of test: biochemical. As to conditions: 1 nM enzyme, 1 μM ATF2, 8 μM ATP, 30° C. for 30 min. How it is done:
as §1

Sequence of Human JNK1α1 (P45983 1-384 isoform P45983-2): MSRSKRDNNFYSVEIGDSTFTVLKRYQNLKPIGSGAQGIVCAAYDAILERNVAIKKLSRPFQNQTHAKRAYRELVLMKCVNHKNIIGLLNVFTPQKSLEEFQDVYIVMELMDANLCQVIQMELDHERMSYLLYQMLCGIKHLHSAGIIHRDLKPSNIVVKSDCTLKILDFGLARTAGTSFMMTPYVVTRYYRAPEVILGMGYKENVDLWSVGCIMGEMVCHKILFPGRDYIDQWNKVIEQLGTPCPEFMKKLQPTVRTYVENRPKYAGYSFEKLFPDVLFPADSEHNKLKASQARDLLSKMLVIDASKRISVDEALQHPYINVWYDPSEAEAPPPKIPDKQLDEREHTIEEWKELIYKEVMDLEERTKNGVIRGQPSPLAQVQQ
Sequence of Human JNK2α2 (P45984 whole entry): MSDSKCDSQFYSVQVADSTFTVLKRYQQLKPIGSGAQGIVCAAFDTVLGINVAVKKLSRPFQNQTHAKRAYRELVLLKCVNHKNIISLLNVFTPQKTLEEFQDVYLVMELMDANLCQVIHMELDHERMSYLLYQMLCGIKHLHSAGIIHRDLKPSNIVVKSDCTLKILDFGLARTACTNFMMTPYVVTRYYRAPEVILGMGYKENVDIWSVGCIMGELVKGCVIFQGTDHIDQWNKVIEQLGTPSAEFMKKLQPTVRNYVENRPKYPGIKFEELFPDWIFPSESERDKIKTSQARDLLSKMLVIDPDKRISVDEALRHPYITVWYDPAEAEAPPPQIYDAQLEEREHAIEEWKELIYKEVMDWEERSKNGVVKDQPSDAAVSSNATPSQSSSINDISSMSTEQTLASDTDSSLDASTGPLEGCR

What is called IC50 is the point on the concentration scale where inhibition reaches its midpoint. `CC(CCO)n1c(=O)ccc2cnc(NC3CCCCC3)nc21` (stereo not drawn) [Compound 1, 2-Cyclohexylamino-8-(3-hydroxy-1-methyl-propyl)-8H-pyrido[2,3-d]pyrimidin-7-one]: the IC50 at Human JNK1α1 is 0.0701 µM; against Human JNK2α2, 0.154 µM.

With `O=c1ccc2cnc(NC3CCCCC3)nc2n1C1CCCC1` [Compound 3, 2-Cyclohexylamino-8-cyclopentyl-8H-pyrido[2,3-d]pyrimidin-7-one], the IC50 against Human JNK1α1 was determined as 0.108 µM; against Human JNK2α2 it was 0.136 µM.

In the case of `CS(=O)(=O)N[C@H]1CC[C@H](Nc2ncc3ccc(=O)n(CCCO)c3n2)CC1` [Compound 5, N-{4-[8-(3-Hydroxy-propyl)-7-oxo-7,8-dihydro-pyrido[2,3-d]pyrimidin-2-ylamino]-cyclohexyl}-methanesulfonamide], the results for the IC50 against Human JNK1α1 and against Human JNK2α2 were 0.282 µM and 0.778 µM, respectively.

Take `Cc1cc2cnc(N[C@H]3CC[C@H](O)CC3)nc2n(CCCO)c1=O` [Compound 7, 2-(4-Hydroxy-cyclohexylamino)-8-(3-hydroxy-propyl)-6-methyl-8H-pyrido[2,3-d]pyrimidin-7-one]: the results for the IC50 against Human JNK1α1 and against Human JNK2α2 were 0.291 µM and 0.409 µM, respectively.

Regarding `CS(=O)(=O)NCCCn1c(=O)ccc2cnc(NC3CCCCC3)nc21` [Compound 9, N-[3-(2-Cyclohexylamino-7-oxo-7H-pyrido[2,3-d]pyrimidin-8-yl)-propyl]-methanesulfonamide], the concentration for half-maximal inhibition (IC50) at Human JNK1α1 turned out to be 0.464 µM; on Human JNK2α2, 0.625 µM.

Take `Cc1cc2cnc(NC3CCCCC3)nc2n(CCCO)c1=O` [Compound 11]: the IC50 at Human JNK1α1 was 0.503 µM; against Human JNK2α2, 0.713 µM.
